US10865216B2, “Tricyclic Gyrase inhibitors” (MERCK SHARP & DOHME CORP., priority 2012, dated 2020)
In brackets after ≈: the same amount, converted by molar mass.

Experiments:
[1] = tested on: S. aureus ATCC 13709; experiment: MIC, S. aureus ATCC 13709; format: cell-based; conditions: for MIC: Staphylococcus aureus, ATCC13709, S. aureus, read-out: MIC Sa
[2] = tested on: E. coli ATCC 25922; experiment: MIC, E. coli ATCC 25922; format: cell-based; conditions: for MIC: Escherichia coli, ATCC25922, E. coli, read-out: MIC Ec
[3] = S. aureus, Alamar Blue read after overnight incubation at 35° C.
[4] = E. coli, Alamar Blue read after overnight incubation at 35° C.
[5] = Alamar Blue read after overnight incubation at 35° C.

MIC Sa [1, 3] [µg/mL] | MIC Ec [2, 4] [µg/mL] | SMILES | further results
≤0.5 | 2 (≈ 4.46 µM) | CNc1cc(F)cc2c1[nH]c1nc(Oc3cnc(C)nc3)nc(N3CC4(CCCNC4)C3)c12 [Compound 4.149] | 
≤0.5 | ≤0.5 | CNc1cc(F)cc2c1[nH]c1nc(Oc3cnc(C)nc3)nc(N3CCC4(CCC4N)CC3)c12 (centres unmarked) [Compound 4.139] | 
≤0.5 | ≤0.5 | CNc1cc(F)cc2c1[nH]c1nc(Oc3cnc4ccoc4c3)nc(N3CC4C(N)C4C3)c12 (centres unmarked) [Compound 4.291] | 
≤0.5 | 4 (≈ 8.45 µM) | CNc1cc(F)cc2c1[nH]c1nc(Oc3ccc4c(c3)C(=O)NC4)nc(N3CC(N)C4(CC4)C3)c12 (centres unmarked) [Compound 4.265] | 
1 (≈ 2.36 µM) | >16 | CCNC(=O)c1cncc(Oc2nc(NCC)c3c(n2)[nH]c2c(NC)cc(F)cc23)c1 [Compound 4.384] | 
≤0.5 | ≤0.5 | CNc1ncc(Oc2nc(N3CC4C(N)C4C3)c3c(n2)[nH]c2c(NC)cc(F)cc23)cn1 (centres unmarked) [Compound 4.218] | 
≤0.5 | 2 (≈ 4.45 µM) | CNc1ncc(Oc2nc(N3CC4CC(N)C4C3)c3c(n2)[nH]c2c(NC)cc(F)cc23)cn1 (centres unmarked) [Compound 4.221] | 
≤0.5 | ≤0.5 | CNc1cc(F)cc2c1[nH]c1nc(Oc3cnc(C)nc3)nc(N3CCC(F)(CN)CC3)c12 [Compound 4.159] | 
≤0.5 | ≤0.5 | CNc1cc(F)cc2c1[nH]c1nc(Oc3cnc(N(C)C)nc3)nc(N3CC[C@@H](N)C3)c12 [Compound 4.207] | 

Second part, the molecule before the results:

SMILES | MIC Sa [1, 3] [µg/mL] | MIC Ec [2, 4] [µg/mL] | further results
CNc1cc(F)cc2c1[nH]c1nc(Oc3cncnc3)nc(N3CC(C)C(CN)C3)c12 (centres unmarked) [Compound 4.023] | ≤0.5 | 1 (≈ 2.37 µM) | 
CNc1cccc2c1[nH]c1nc(Oc3cncnc3)cc(N3C[C@H](NCC4CC4)C4(CC4)C3)c12 [Compound 3.12] |  |  | MIC [1, 5]: 1 µg/mL (≈ 2.2 µM); MIC [2, 5]: 8 µg/mL (≈ 17.6 µM)
CNc1cc(F)cc2c1[nH]c1nc(Oc3cncnc3)nc(N3CC(N)CC3C)c12 (centres unmarked) [Compound 4.029] | 4 (≈ 9.79 µM) | 16 (≈ 39.2 µM) | 
CNc1cc(F)cc2c1[nH]c1nc(Oc3cnc(C4CC4)nc3)nc(N3CC4CCC(N)C4C3)c12 (centres unmarked) [Compound 4.251] | ≤0.5 | ≤0.5 | 
CNc1cc(F)cc2c1[nH]c1nc(Oc3cnc([C@@H](C)O)nc3)nc(N3CCOCC3)c12 [Compound 10.116] |  |  | MIC Sa ([1]; Table 18, Sa): ≤ 0.5 µg/mL; MIC Ec ([2]; Table 18, Ec): ≤ 0.5 µg/mL
CNc1cc(F)cc2c1[nH]c1nc(Oc3cnc(OC)nc3)nc(N3C[C@H](N)C4(CC4)C3)c12 [Compound 4.433] |  |  | MIC [1, 5]: ≤ 0.5 µg/mL; MIC [2, 5]: ≤ 0.5 µg/mL
CNc1cc(F)c2c3c1[nH]c1nc(Oc4cnc(C)nc4)nc(c13)-c1ccc(Cl)cc1NC2 |  |  | SA MIC ([1]; Table 12, Z is C and connected to R4): ≤ 0.5 µg/mL; EC8 MIC ([2]; Table 12, Z is C and connected to R4, EC8 not defined): 4 µg/mL
CNc1cc(F)cc2c1[nH]c1nc(Oc3cnc(C(C)O)nc3)nc(N3CC4(CC[C@H]4N)C3)c12 (some centres unmarked) [Compound 4.430] |  |  | MIC [1, 5]: ≤ 0.5 µg/mL; MIC [2, 5]: ≤ 0.5 µg/mL
CNc1cc(F)cc2c1[nH]c1nc(Oc3ccc4cncnc4c3)nc(N3C[C@H]4C[C@@H]3C[C@H]4N)c12 [Compound 10.97] |  |  | MIC Sa ([1]; Table 18, Sa): ≤ 0.5 µg/mL; MIC Ec ([2]; Table 18, Ec): 2 µg/mL (≈ 4.25 µM)
CNc1cc(F)cc2c1[nH]c1nc(Oc3cnc(C(C)OC)nc3)nc(N3CC4CC4C3)c12 (centres unmarked) [Compound 10.117] |  |  | MIC Sa ([1]; Table 18, Sa): ≤ 0.5 µg/mL; MIC Ec ([2]; Table 18, Ec): ≤ 0.5 µg/mL
CNc1cc(F)cc2c1[nH]c1nc(Oc3cnc(C)nc3)nc(N3CC(N)C(C(F)(F)F)C3)c12 (centres unmarked) [Compound 4.436] |  |  | MIC [1, 5]: ≤ 0.5 µg/mL; MIC [2, 5]: > 16 µg/mL
CNc1cccc2c1[nH]c1nc(Oc3ccc4nccnc4c3)cc(N3CC4C(N)C4C3)c12 (centres unmarked) [Compound 3.31] |  |  | MIC [1, 5]: 2 µg/mL (≈ 4.57 µM); MIC [2, 5]: 8 µg/mL (≈ 18.3 µM)
CNc1cccc2c1[nH]c1nc(Sc3cnc4nccnc4c3)nc(N3CC[C@H](N)C3)c12 [Compound 1.15] |  |  | MIC [1, 5]: 1 µg/mL (≈ 2.25 µM); MIC [2, 5]: 2 µg/mL (≈ 4.51 µM)
CNc1cc(F)cc2c1[nH]c1nc(Oc3cnc(N)nc3)nc(N3CC4CC(N)C4C3)c12 (centres unmarked) [Compound 4.184] | ≤0.5 | 1 (≈ 2.3 µM) | 
CNc1cc(F)cc2c1[nH]c1nc(Oc3cnc4c(ccn4C)c3)nc(N3CC4CC(N)C4C3)c12 (centres unmarked) [Compound 4.328] | ≤0.5 | 1 (≈ 2.12 µM) | 
CNc1cc(F)cc2c1[nH]c1nc(Oc3cnc(C)nc3)nc(N3CCC(C(C)=O)C3)c12 (centres unmarked) [Compound 10.113] |  |  | MIC Sa ([1]; Table 18, Sa): ≤ 0.5 µg/mL; MIC Ec ([2]; Table 18, Ec): ≤ 0.5 µg/mL
CNc1cc(F)cc2c1[nH]c1nc(Oc3cnc4c(C)cnn4c3)nc(N3C[C@H](N)C4(CC4)C3)c12 [Compound 10.20] |  |  | MIC Sa ([1]; Table 18, Sa): ≤ 0.5 µg/mL; MIC Ec ([2]; Table 18, Ec): ≤ 0.5 µg/mL
CNc1cccc2c1[nH]c1nc(Oc3cncc(C#N)c3)cc(N3CC4C(N)C4C3)c12 (centres unmarked) [Compound 3.27] |  |  | MIC [1, 5]: 1 µg/mL (≈ 2.43 µM); MIC [2, 5]: 4 µg/mL (≈ 9.72 µM)
CNc1cc(F)cc2c1[nH]c1nc(Oc3cncc(Cl)c3)nc(N3CC4C(N)C4C3)c12 (centres unmarked) [Compound 4.272] | ≤0.5 | ≤0.5 | 
